Patent US9695155B2, “Herbicidal substituted pyrimidinyloxy benzene compounds” (E. I. DU PONT DE NEMOURS AND COMPANY, priority 2013, dated 2017)

Legend:
[1] = tested on: kochia; assay: Test A postemergence; type: in vivo, Kochia scoparia; conditions: 1000 g ai/ha, 0 to 100 scale, 0 no effect, 100 complete control
Text: (§1) Seeds of plant species selected from barnyardgrass (Echinochloa crus-galli), kochia (Kochia scoparia), ragweed (common ragweed, Ambrosia elatior), Italian ryegrass (Lolium multiflorum), large (Lg) crabgrass (Digitaria sanguinalis), giant foxtail (Setaria faberii), morningglory (Ipomoea spp.), pigweed (Amaranthus retroflexus), velvetleaf (Abutilon theophrasti), wheat (Triticum aestivum), and corn (Zea mays) were planted into a blend of loam soil and sand and treated preemergence with a directed soil spray using test chemicals formulated in a non-phytotoxic solvent mixture which included a surfactant.
(§2) At the same time, plants selected from these crop and weed species and also blackgrass (Alopecurus myosuroides), and galium (catchweed bedstraw, Galium aparine) were planted in pots containing the same blend of loam soil and sand and treated with postemergence applications of test chemicals formulated in the same manner. Plants ranged in height from 2 to 10 cm and were in the one- to two-leaf stage for the postemergence treatment. Treated plants and untreated controls were maintained in a greenhouse for approximately 10 days, after which time all treated plants were compared to untreated controls and visually evaluated for injury. Plant response ratings, summarized in Table A, are based on a 0 to 100 scale where 0 is no effect and 100 is complete control. A dash (-) response means no test result.

[2] = tested on: giant foxtail; assay: Test A preemergence; type: in vivo, Setaria faberii
How it was run: (§3)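 Visual 0–100 rating (100 = complete control) taken about 10 d post-treatment relative to untreated checks. Preemergence: directed soil spray on sown loam/sand pots. Postemergence: seedlings 2–10 cm, 1–2 leaf. Non-phytotoxic solvent formulation with surfactant.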

[3] = tested on: pigweed; assay: Test A preemergence; type: in vivo, Amaranthus retroflexus
How it was run: as §3

[4] = tested on: ragweed; assay: Test A preemergence; type: in vivo, Ambrosia elatior; conditions: 1000 g ai/ha, 0 to 100 scale, 0 no effect, 100 complete control, approx. 10 days
Text: as §1, §2

[5] = tested on: barnyardgrass; assay: Test A preemergence; type: in vivo, Echinochloa crus-galli
How it was run: as §3

[6] = tested on: blackgrass; assay: Test A postemergence; type: in vivo, Alopecurus myosuroides; conditions: 1000 g ai/ha, 0 to 100 scale, 0 no effect, 100 complete control
Text: as §1, §2

[7] = tested on: pigweed; assay: Test A postemergence; type: in vivo, Amaranthus retroflexus
How it was run: as §3

[8] = tested on: Italian ryegrass; assay: Test A preemergence; type: in vivo, Lolium multiflorum; conditions: 1000 g ai/ha, 0 to 100 scale, 0 no effect, 100 complete control, approx. 10 days
Text: as §1, §2

[9] = tested on: corn; assay: Test A postemergence; type: in vivo, Zea mays
How it was run: as §3

[10] = tested on: wheat; assay: Test A postemergence; type: in vivo, Triticum aestivum
How it was run: as §3

[11] = tested on: giant foxtail; assay: Test A postemergence; type: in vivo, Setaria faberii
How it was run: as §3

[12] = tested on: kochia; assay: Test A preemergence; type: in vivo, Kochia scoparia; conditions: 1000 g ai/ha, 0 to 100 scale, 0 no effect, 100 complete control, approx. 10 days
Text: as §1, §2

[13] = tested on: galium; assay: Test A postemergence; type: in vivo, Galium aparine; conditions: 1000 g ai/ha, 0 to 100 scale, 0 no effect, 100 complete control
Text: as §1, §2

[14] = tested on: ragweed; assay: Test A postemergence; type: in vivo, Ambrosia elatior; conditions: 1000 g ai/ha, 0 to 100 scale, 0 no effect, 100 complete control
Text: as §1, §2

[15] = tested on: barnyardgrass; assay: Test A postemergence; type: in vivo, Echinochloa crus-galli
How it was run: as §3

[16] = tested on: Italian ryegrass; assay: Test A postemergence; type: in vivo, Lolium multiflorum; conditions: 1000 g ai/ha, 0 to 100 scale, 0 no effect, 100 complete control
Text: as §1, §2

[17] = tested on: morningglory; assay: Test A postemergence; type: in vivo, Ipomoea spp.
How it was run: as §3

[18] = tested on: corn; assay: Test A preemergence; type: in vivo, Zea mays
How it was run: as §3

[19] = tested on: rice; assay: Test B flooded paddy test; type: in vivo, Oryza sativa; conditions: Flood, 250 g ai/ha; 0 to 100 scale where 0 is no effect and 100 is complete control
How it was run: (§4)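 Scores from 0 (no effect) to 100 (complete control) are visual comparisons with controls, taken 13 to 15 days after compound was applied into floodwater 3 cm deep around 2-leaf plants.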

[20] = tested on: sedge, umbrella; assay: Test B flooded paddy test; type: in vivo, Cyperus difformis; conditions: Flood, 250 g ai/ha; 0 to 100 scale where 0 is no effect and 100 is complete control
How it was run: as §4

[21] = tested on: large (Lg) crabgrass; assay: Test A postemergence; type: in vivo, Digitaria sanguinalis
How it was run: as §3

[22] = tested on: morningglory; assay: Test A preemergence; type: in vivo, Ipomoea spp.
How it was run: as §3

[23] = tested on: barnyardgrass; assay: Test B flooded paddy test; type: in vivo, Echinochloa crus-galli; conditions: Flood, 250 g ai/ha; 0 to 100 scale where 0 is no effect and 100 is complete control
How it was run: as §4

[24] = tested on: large (Lg) crabgrass; assay: Test A preemergence; type: in vivo, Digitaria sanguinalis
How it was run: as §3

[25] = tested on: velvetleaf; assay: Test A postemergence; type: in vivo, Abutilon theophrasti
How it was run: as §3

[26] = tested on: wheat; assay: Test A preemergence; type: in vivo, Triticum aestivum
How it was run: as §3

[27] = tested on: velvetleaf; assay: Test A preemergence; type: in vivo, Abutilon theophrasti
How it was run: as §3

[28] = tested on: Heteranthera limosa; assay: Test B flooded paddy test; type: in vivo; conditions: Flood, 250 g ai/ha; 0 to 100 scale where 0 is no effect and 100 is complete control
How it was run: as §4

[29] = 1000 g ai/ha, 0 to 100 scale, 0 no effect, 100 complete control, approx. 10 days
[30] = 1000 g ai/ha, 0 to 100 scale, 0 no effect, 100 complete control
[31] = 125 g ai/ha, 0 to 100 scale, 0 no effect, 100 complete control
[32] = 500 g ai/ha, 0 to 100 scale where 0 is no effect and 100 is complete control

CCNC(=O)c1cccc(Oc2ncc(Cl)cn2)c1-n1cc(C(F)(F)F)cn1 [Compound 257]
Plant response rating, Kochia [1]: 60
Foxtail, Giant plant response rating [2, 29]: 70
Pigweed plant response rating [3, 29]: 80
Ragweed plant response rating [4]: 70
Barnyardgrass plant response rating [5, 29]: 50
Plant response rating, Blackgrass [6]: 10
Plant response rating, Pigweed [7, 30]: 40
Ryegrass, Italian plant response rating [8]: 20
Plant response rating, Corn [9, 30]: 0
Plant response rating, Wheat [10, 30]: 0
Plant response rating, Foxtail, Giant [11, 30]: 10
Kochia plant response rating [12]: 70
Plant response rating, Galium [13]: 30
Plant response rating, Ragweed [14]: 30
Plant response rating, Barnyardgrass [15, 30]: 10
Plant response rating, Ryegrass, Italian [16]: 0

CCN(CC)C(=O)c1cccc(Oc2ncc(Cl)cn2)c1-n1cc(C(F)(F)F)cn1 [Compound 263]
Plant response rating, Kochia [1]: 10
Foxtail, Giant plant response rating [2, 29]: 50
Pigweed plant response rating [3, 29]: 10
Ragweed plant response rating [4]: 0
Barnyardgrass plant response rating [5, 29]: 0
Plant response rating, Blackgrass [6]: 20
Plant response rating, Pigweed [7, 30]: 10
Ryegrass, Italian plant response rating [8]: 0
Plant response rating, Corn [9, 30]: 0
Plant response rating, Wheat [10, 30]: 0
Plant response rating, Foxtail, Giant [11, 30]: 0
Kochia plant response rating [12]: 20
Plant response rating, Galium [13]: 10
Plant response rating, Ragweed [14]: 0
Plant response rating, Barnyardgrass [15, 30]: 0
Plant response rating, Ryegrass, Italian [16]: 0

Fc1cccc(Oc2ncc(Cl)cn2)c1-n1cc(-c2cccc(C(F)(F)F)c2)nn1 [Compound 276]
Plant response rating, Kochia [1]: 40
Foxtail, Giant plant response rating [2, 29]: 0
Pigweed plant response rating [3, 29]: 0
Ragweed plant response rating [4]: 0
Barnyardgrass plant response rating [5, 29]: 0
Plant response rating, Blackgrass [6]: 20
Plant response rating, Pigweed [7, 30]: 80
Ryegrass, Italian plant response rating [8]: 0
Plant response rating, Corn [9, 30]: 10
Plant response rating, Wheat [10, 30]: 0
Plant response rating, Foxtail, Giant [11, 30]: 20
Kochia plant response rating [12]: 0
Plant response rating, Galium [13]: 20
Plant response rating, Ragweed [14]: 30
Plant response rating, Barnyardgrass [15, 30]: 20
Plant response rating, Ryegrass, Italian [16]: 0

NN=Cc1cccc(Oc2ncc(Cl)cn2)c1-n1cc(Cl)cn1 [Compound 295]
Plant response rating, Morningglory [17, 31]: 40
Plant response rating, Morningglory [17, 32]: 40
Corn plant response rating (0 to 100 scale) ([18]; 125 g ai/ha): 0
Corn plant response rating [18, 32]: 0
Plant response rating, Rice [19]: 0
Plant response rating, Sedge, Umbrella [20]: 0
Plant response rating, Crabgrass, Large [21, 31]: 0
Plant response rating, Crabgrass, Large [21, 32]: 0
Morningglory plant response rating (0 to 100 scale) ([22]; 125 g ai/ha): 0
Morningglory plant response rating [22, 32]: 0
Foxtail, Giant plant response rating (0 to 100 scale) ([2]; 125 g ai/ha): 0
Foxtail, Giant plant response rating [2, 32]: 0
Pigweed plant response rating (0 to 100 scale) ([3]; 125 g ai/ha): 20
Pigweed plant response rating [3, 32]: 60
Plant response rating, Barnyardgrass [23]: 0
Barnyardgrass plant response rating (0 to 100 scale, 0 is no effect, 100 is complete control) ([5]; 125 g ai/ha): 0
Barnyardgrass plant response rating [5, 32]: 0
Crabgrass, Large plant response rating (0 to 100 scale) ([24]; 125 g ai/ha): 0
Crabgrass, Large plant response rating [24, 32]: 0
Plant response rating, Pigweed [7, 31]: 40
Plant response rating, Pigweed [7, 32]: 70
Plant response rating, Corn [9, 31]: 0
Plant response rating, Corn [9, 32]: 0
Plant response rating, Wheat [10, 31]: 0
Plant response rating, Wheat [10, 32]: 0
Plant response rating, Foxtail, Giant [11, 31]: 0
Plant response rating, Foxtail, Giant [11, 32]: 0
Plant response rating, Velvetleaf [25, 31]: 30
Plant response rating, Velvetleaf [25, 32]: 30
Wheat plant response rating (0 to 100 scale) ([26]; 125 g ai/ha): 0
Wheat plant response rating [26, 32]: 0
Velvetleaf plant response rating (0 to 100 scale) ([27]; 125 g ai/ha): 0
Velvetleaf plant response rating [27, 32]: 0
Plant response rating, Barnyardgrass [15, 31]: 0
Plant response rating, Barnyardgrass [15, 32]: 0
Plant response rating, Ducksalad [28]: 0
